This experiment concerns the target T1, VAV1 (Homo sapiens, UniProt P15498+Q96SW2).
T1 construct: A heterozygous VAV1 C-terminal HiBiT knock-in pool was generated at Monte Rosa Therapeutics from a clonal Jurkat cell; endogenous in cells; host or cells: Jurkat clone stably expressing LgBiT, homozygous GSPT1-G575N; heterozygous VAV1-HiBiT knock-in pool
The experiment is described as follows: VAV1 degradation activity, VAV1-HiBiT knock-in Jurkat luminescence assay (Example A, Table 1). It is filed as cell-based. Conditions: VAV1-HiBiT knock-in Jurkat cells, luminescence read at 6 and 24 hours; for Dmax: Jurkat. The essentials: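 Jurkat cells carrying VAV1-HiBiT knock-in, plated in RPMI/10% FBS with Endurazine live-cell substrate and pre-incubated ~16 h at 37° C. Compound dosed from 10 μM stock; luminescence read 6 and 24 h later. Response normalised to plate negative/positive controls, EC50 from 3-parameter logistic fit (hillslope 1).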

Where [1] appears, read: read-out: VAV1 DC50 (nM), class.

Structures are written as SMILES. Read-outs that look alike come from different tables or passages of the source.

The Dmax is the largest share of the target that was removed. By DC50 is commonly meant the midpoint of the concentration-degradation curve.

Take `O=C1CCC(c2cccc(-c3ccc(CN4CCN5CCCC5C4=O)cc3)c2Cl)C(=O)N1` (stereo not drawn) [Compound 261]: the greatest degradation seen (Dmax) reads like this: (read-out: VAV1 Dmax %) 84.8%; (read-out: VAV1 Dmax %, class) 60 to 90%. For the same compound, the DC50 runs as follows: (read-out: VAV1 DC50) 101 nM; under setting [1], 100 to 1000 nM.
Regarding `O=C1CCC(c2cccc(-c3ccc(CN4C(=O)CCCC4C(F)(F)F)cc3)c2Cl)C(=O)N1` (stereo not drawn) [Compound 262], the Dmax is, setting by setting: (read-out: VAV1 Dmax %) 90.2%; (read-out: VAV1 Dmax %, class) > 90%. The 50% degradation concentration (DC50) runs as follows: (read-out: VAV1 DC50) 32.6 nM; under setting [1], ≤ 100 nM.
For the compound `CC1(C)COCC(=O)N1Cc1ccc(-c2cccc(C3CCC(=O)NC3=O)c2Cl)cc1` (stereo not drawn) [Compound 263], the Dmax (read-out: VAV1 Dmax %) was found to be 87.5% and the Dmax (read-out: VAV1 Dmax %, class) fell in the range of 60 to 90%. For the same compound, the DC50 is 29.3 nM (read-out: VAV1 DC50) and ≤ 100 nM under setting [1].
Regarding `O=C1CCC(c2cccc(-c3ccc(CN4C(=O)COCC45CC5)cc3)c2Cl)C(=O)N1` (stereo not drawn) [Compound 264], the Dmax (read-out: VAV1 Dmax %) came out at 84.6% and the maximal degradation (Dmax) (read-out: VAV1 Dmax %, class) was in the range of 60 to 90%. The DC50 runs as follows: (read-out: VAV1 DC50) 39.5 nM; under setting [1], ≤ 100 nM.
For the compound `C[C@H]1COCC(=O)N1Cc1ccc(-c2cccc(C3CCC(=O)NC3=O)c2Cl)cc1` (stereo partly drawn) [Compound 265], the Dmax by setting is: (read-out: VAV1 Dmax %) 88%; (read-out: VAV1 Dmax %, class) 60 to 90%. Besides, the half-maximal degradation concentration (DC50) is, setting by setting: (read-out: VAV1 DC50) 32.5 nM; under setting [1], ≤ 100 nM.
In the same order, the values of `CC1CCC(F)(F)C(=O)N1Cc1ccc(-c2cccc(C3CCC(=O)NC3=O)c2Cl)cc1` (stereo not drawn) [Compound 266] are 93.2%, > 90%, 14.1 nM and ≤ 100 nM.
With `CC1CN(Cc2ccc(-c3cccc(C4CCC(=O)NC4=O)c3Cl)cc2)C(=O)C(C)O1` (stereo not drawn) [Compound 267], the Dmax runs as follows: (read-out: VAV1 Dmax %) 96.4%; (read-out: VAV1 Dmax %, class) > 90%. Also, the DC50 (read-out: VAV1 DC50) came to 11.5 nM and the DC50 under setting [1] is ≤ 100 nM.
For the compound `CC1(C)CN(c2cccc(-c3ccc(CC4CCC(=O)NC4=O)cc3Cl)c2)C(=O)CO1` (stereo not drawn) [Compound 268], the “VAV1 Dmax %, class” value is “A (A represents a Dmax % >90%)”. The Dmax (read-out: VAV1 Dmax %) worked out at 94.5%. Moreover, the DC50 (read-out: VAV1 DC50) was 12.8 nM. Further, the DC50 under setting [1] is ≤ 100 nM.
Turning to `O=C1CCC(c2cccc(-c3ccc(CN4CC5(F)CC(C5)C4=O)cc3)c2Cl)C(=O)N1` (stereo not drawn) [Compound 269], the Dmax runs as follows: (read-out: VAV1 Dmax %) 96.9%; (read-out: VAV1 Dmax %, class) > 90%. Moreover, the DC50 runs as follows: (read-out: VAV1 DC50) 6.83 nM; under setting [1], ≤ 100 nM.
Regarding `O=C1CCC(c2cccc(-c3cccc(CC4CCC(F)C(=O)N4)c3)c2Cl)C(=O)N1` (stereo not drawn) [Compound 270], the maximal degradation (Dmax) by setting is: (read-out: VAV1 Dmax %) 89.6%; (read-out: VAV1 Dmax %, class) 60 to 90%. Also, the DC50 is 31.3 nM (read-out: VAV1 DC50) and ≤ 100 nM under setting [1].
Turning to `COC1CCCC(=O)N1Cc1ccc(-c2cccc(C3CCC(=O)NC3=O)c2Cl)cc1` (stereo not drawn) [Compound 271], the Dmax (read-out: VAV1 Dmax %) came out at 83.8% and the Dmax (read-out: VAV1 Dmax %, class) is 60 to 90%. Besides, the DC50 was 50.9 nM (read-out: VAV1 DC50) and ≤ 100 nM under setting [1].
Take `Cn1ccc2c1C(=O)N(Cc1ccc(-c3cccc(C4CCC(=O)NC4=O)c3Cl)cc1)CC2` (stereo not drawn) [Compound 272]: the Dmax runs as follows: (read-out: VAV1 Dmax %) 96.8%; (read-out: VAV1 Dmax %, class) > 90%. Also, the DC50 is 13.6 nM (read-out: VAV1 DC50) and ≤ 100 nM under setting [1].
As for `O=C1CCC(c2cccc(-c3ccc(CN4CCn5cncc5C4=O)cc3)c2Cl)C(=O)N1` (stereo not drawn) [Compound 273], the Dmax runs as follows: (read-out: VAV1 Dmax %) 78%; (read-out: VAV1 Dmax %, class) 60 to 90%. The DC50 is 118 nM (read-out: VAV1 DC50) and 100 to 1000 nM under setting [1].
With `O=C1CCC(c2cccc(-c3ccc(CN4CCn5ccnc5C4=O)cc3)c2Cl)C(=O)N1` (stereo not drawn) [Compound 274], the Dmax by setting is: (read-out: VAV1 Dmax %) 69.5%; (read-out: VAV1 Dmax %, class) 60 to 90%. Also, the DC50 reads like this: (read-out: VAV1 DC50) 269 nM; under setting [1], 100 to 1000 nM.
The corresponding values for `O=C1CCC(c2cccc(-c3ccc(CN4CCn5nccc5C4=O)cc3)c2Cl)C(=O)N1` (stereo not drawn) [Compound 275] are 87.6%, 60 to 90%, 37.2 nM and ≤ 100 nM.
In the same order, the values of `O=C1CCC(c2cccc(-c3ccc(CN4Cc5nccn5CC4=O)cc3)c2Cl)C(=O)N1` (stereo not drawn) [Compound 276] are 88.6%, 60 to 90%, 47.6 nM and ≤ 100 nM.
On to `CN1CCN(Cc2ccc(-c3cccc(C4CCC(=O)NC4=O)c3Cl)cc2)C(=O)C1` (stereo not drawn) [Compound 277], for which the Dmax (read-out: VAV1 Dmax %) was 76.8% and the maximal degradation (Dmax) (read-out: VAV1 Dmax %, class) is 60 to 90%. The half-maximal degradation concentration (DC50) reads like this: (read-out: VAV1 DC50) 647 nM; under setting [1], 100 to 1000 nM.
In the same order, the values of `O=C1CCC(c2cccc(-c3ccc(CN4C(=O)CC45CCOCC5)cc3)c2Cl)C(=O)N1` (stereo not drawn) [Compound 278] are 95.9%, > 90%, 5.33 nM and ≤ 100 nM.
`O=C1CCC(c2cccc(-c3ccc(CN4C(=O)CC45CCC5)cc3)c2Cl)C(=O)N1` (stereo not drawn) [Compound 279]: the Dmax reads like this: (read-out: VAV1 Dmax %) 98.5%; (read-out: VAV1 Dmax %, class) > 90%. The half-maximal degradation concentration (DC50) is 4.83 nM (read-out: VAV1 DC50) and ≤ 100 nM under setting [1].
Turning to `CC1(C)CN(c2cccc(-c3ccc(CC4CCC(=O)NC4=O)cc3Cl)c2)C(=O)CO1` (stereo not drawn) [Compound 280], the “VAV1 Dmax %” value is given as 83.31%; the “VAV1 Dmax %, class” value is “B (B represents Dmax % >60% and <=90%)”. For the same compound, under “read-out: VAV1 DC50”, the DC50 worked out at 44.9 nM. Besides, the DC50 under setting [1] was ≤ 100 nM.
For `O=C1CCC(c2cccc(-c3ccc(CN4CC5CCCC5C4=O)cc3)c2Cl)C(=O)N1` (stereo not drawn) [Compound 282], the Dmax was 98% (read-out: VAV1 Dmax %) and > 90% (read-out: VAV1 Dmax %, class). The DC50 by setting is: (read-out: VAV1 DC50) 3.88 nM; under setting [1], ≤ 100 nM.
In the same order, the values of `O=C1CCC(c2cccc(-c3ccc(CN4CCC5CC5C4=O)cc3)c2Cl)C(=O)N1` (stereo not drawn) [Compound 283] are 93.3%, > 90%, 11.1 nM and ≤ 100 nM.
In the same order, the values of `CC1(C)CCC(=O)N(Cc2ccc(-c3cccc(C4CCC(=O)NC4=O)c3Cl)cc2)C1` (stereo not drawn) [Compound 284] are 98%, > 90%, 3.48 nM and ≤ 100 nM.
In the case of `CC1(C)CCN(Cc2ccc(-c3cccc(C4CCC(=O)NC4=O)c3Cl)cc2)C(=O)C1` (stereo not drawn) [Compound 285], the Dmax was 95.2% (read-out: VAV1 Dmax %) and > 90% (read-out: VAV1 Dmax %, class). In addition, the DC50 is 10.2 nM (read-out: VAV1 DC50) and ≤ 100 nM under setting [1].
In the same order, the values of `CC1CCN(Cc2ccc(-c3cccc(C4CCC(=O)NC4=O)c3Cl)cc2)C(=O)C1` (stereo not drawn) [Compound 286] are 94%, > 90%, 15.9 nM and ≤ 100 nM.
In the same order, the values of `CC1CCCN(Cc2ccc(-c3cccc(C4CCC(=O)NC4=O)c3Cl)cc2)C1=O` (stereo not drawn) [Compound 287] are 95.5%, > 90%, 12.5 nM and ≤ 100 nM.
The corresponding values for `CC1CCC(=O)N(Cc2ccc(-c3cccc(C4CCC(=O)NC4=O)c3Cl)cc2)C1` (stereo not drawn) [Compound 288] are 96.7%, > 90%, 6.09 nM and ≤ 100 nM.
On to `O=C1CCC(c2cccc(-c3ccc(CN4CCC(F)C4=O)cc3)c2Cl)C(=O)N1` (stereo not drawn) [Compound 289], for which the Dmax was 86.7% (read-out: VAV1 Dmax %) and 60 to 90% (read-out: VAV1 Dmax %, class). Besides, the half-maximal degradation concentration (DC50) is, setting by setting: (read-out: VAV1 DC50) 43.3 nM; under setting [1], ≤ 100 nM.
The corresponding values for `CC1CCN(Cc2ccc(-c3cccc(C4CCC(=O)NC4=O)c3Cl)cc2)C1=O` (stereo not drawn) [Compound 290] are 92.9%, > 90%, 16.9 nM and ≤ 100 nM.
Regarding `O=C1CCC(c2cccc(-c3ccc(CN4CC5CC5C4=O)cc3)c2Cl)C(=O)N1` (stereo not drawn) [Compound 291], the Dmax is, setting by setting: (read-out: VAV1 Dmax %) 93.1%; (read-out: VAV1 Dmax %, class) > 90%. The DC50 by setting is: (read-out: VAV1 DC50) 21.3 nM; under setting [1], ≤ 100 nM.
In the same order, the values of `CC1(C)CCCC(=O)N1Cc1ccc(-c2cccc(C3CCC(=O)NC3=O)c2Cl)cc1` (stereo not drawn) [Compound 292] are 93.7%, > 90%, 12.7 nM and ≤ 100 nM.
In the same order, the values of `O=C1CCC(c2cccc(-c3ccc(CN4C(=O)CCC45CCC5)cc3)c2Cl)C(=O)N1` (stereo not drawn) [Compound 293] are 95.8%, > 90%, 6.99 nM and ≤ 100 nM.
The corresponding values for `O=C1CCC(c2cccc(-c3ccc(CN4C(=O)CCCC45CC5)cc3)c2Cl)C(=O)N1` (stereo not drawn) [Compound 294] are 95.7%, > 90%, 8.3 nM and ≤ 100 nM.
Turning to `CC1CCCC(=O)N1Cc1ccc(-c2cccc(C3CCC(=O)NC3=O)c2Cl)cc1` (stereo not drawn) [Compound 295], the greatest degradation seen (Dmax) (read-out: VAV1 Dmax %) turned out to be 94.8% and the Dmax (read-out: VAV1 Dmax %, class) is > 90%. For the same compound, the DC50 by setting is: (read-out: VAV1 DC50) 9.84 nM; under setting [1], ≤ 100 nM.
The corresponding values for `O=C1CCC(c2cccc(-c3ccc(CN4C(=O)CCC45CC5)cc3)c2Cl)C(=O)N1` (stereo not drawn) [Compound 296] are 93.8%, > 90%, 10.1 nM and ≤ 100 nM.
The corresponding values for `CC1CCC(=O)N1Cc1ccc(-c2cccc(C3CCC(=O)NC3=O)c2Cl)cc1` (stereo not drawn) [Compound 297] are 93.5%, > 90%, 13.4 nM and ≤ 100 nM.

The values above are taken from patent publication US12257247B2 (Monte Rosa Therapeutics AG, priority 2023, dated 2025).
